Measured values as given in ChEMBL document CHEMBL5154697, “Synthesis and anti-HIV activity of a new isoxazole containing disubstituted 1,2,4-oxadiazoles analogs” (Bioorg Med Chem, 2022).

What was measured:
[1] = system: Human immunodeficiency virus 1; test: Antiviral activity against HIV1 NL4.3 infected in human TZM-bl cells assessed as inhibition of viral infection at 100 nM measured after 48 hrs by steady-glo luciferase reporter gene assay relative to control; assay type: functional; conditions: Human immunodeficiency virus 1, NL4.3, TZM-bl
[2] = system: Human immunodeficiency virus 1; test: Antiviral activity against HIV1 NL4.3 virus infected in human CEM-GFP cells assessed as reduction in p24 antigen level at 100 nM measured after 72 hrs by ELISA relative to control; assay type: functional; conditions: Human immunodeficiency virus 1, NL4.3, CEM-GFP
[3] = Cytotoxicity against human CEM-GFP cells assessed as cell viability at 100 nM measured after 48 hrs by MTT assay relative to control; assay type: toxicity, cell-based; conditions: read-out: Activity
[4] = Cytotoxicity against human TZM-bl cells harboring beta-galactosidase/luciferase reporter gene assessed as cell viability at 100 nM measured after 48 hrs by MTT assay relative to control; assay type: toxicity, cell-based; conditions: read-out: Activity
[5] = Therapeutic index, ratio of CC50 for cytotoxicity against human CEM-GFP cells to IC50 for antiviral activity against HIV1 NL4.3 virus infected in human CEM-GFP cells assessed as reduction in p24 antigen level; assay type: toxicity, cell-based; conditions: read-out: TI
[6] = Cytotoxicity against human CEM-GFP cells assessed as reduction in cell viability measured after 48 hrs by MTT assay; assay type: toxicity, cell-based
[7] = target: Human immunodeficiency virus type 1 protease (Human immunodeficiency virus 1) (UniProt Q72874); conditions: dose 500.0 nM
Description: Inhibition of HIV-1 protease at 500 nM using fluorophore-labelled peptide substrate by fluorescence assay relative to control

[8] = system: Human immunodeficiency virus 1; test: Antiviral activity against HIV1 NL4.3 virus infected in human CEM-GFP cells assessed as reduction in p24 antigen level measured after 72 hrs by ELISA; assay type: functional, organism-based; conditions: Human immunodeficiency virus 1, NL4.3, CEM-GFP
[9] = target: Human immunodeficiency virus type 1 reverse transcriptase (Human immunodeficiency virus 1) (UniProt Q72547); test: Inhibition of HIV-1 reverse transcriptase RNA-dependent DNA polymerase activity assessed as reduction in biotin-dUTP incorporation at 100 nM using poly(A)/oligo (dT)15 as template/primer by ELISA relative to control
[10] = target: Human immunodeficiency virus type 1 protease (Human immunodeficiency virus 1) (UniProt Q72874); test: Inhibition of HIV-1 protease at 100 nM using fluorophore-labelled peptide substrate by fluorescence assay relative to control
[11] = target: Human immunodeficiency virus type 1 integrase (Human immunodeficiency virus 1) (UniProt Q7ZJM1); test: Inhibition of full-length recombinant HIV1 integrase at 100 nM using target substrate DNA preincubated for 5 mins followed by substrate addition and measured after 30 mins by colorimetry relative to control; conditions: time 35.0 min
Chain of Human immunodeficiency virus type 1 integrase (Human immunodeficiency virus 1) (Q7ZJM1 as listed by the source): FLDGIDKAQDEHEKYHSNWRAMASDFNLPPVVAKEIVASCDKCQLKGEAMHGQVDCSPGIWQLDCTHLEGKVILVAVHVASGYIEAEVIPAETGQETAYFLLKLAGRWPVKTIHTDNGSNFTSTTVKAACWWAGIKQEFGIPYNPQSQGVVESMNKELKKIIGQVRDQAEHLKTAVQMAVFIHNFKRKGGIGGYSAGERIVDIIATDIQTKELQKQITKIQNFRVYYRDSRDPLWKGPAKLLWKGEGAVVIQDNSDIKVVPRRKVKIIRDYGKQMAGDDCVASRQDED

| SMILES | inhibition at 0.1 µM [1] | inhibition at 0.1 µM [2] | viability at 48 h, 0.1 µM [3] | viability at 48 h, 0.1 µM [4] | selectivity ratio [5] | CC50 at 48 h [6] | inhibition [7] | IC50 [8] | inhibition [9] | inhibition [10] | inhibition [11] |
| --- | --- | --- | --- | --- | --- | --- | --- | --- | --- | --- | --- |
| FC(F)(F)c1cccc(-c2nc(Cc3cc(-c4ccccc4)no3)no2)c1 | 47.4% | 39.1% | 95.9% | 84.7% | – | – | – | – | – | – | – |
| Cc1ccc(-c2cc(Cc3noc(-c4cccc(C(F)(F)F)c4)n3)on2)cc1 | 65.4% | 50% | 86.7% | 82.1% | – | – | – | – | – | – | – |
| COc1ccc(-c2cc(Cc3noc(-c4cccc(C(F)(F)F)c4)n3)on2)cc1 | 24.3% | 27% | 96.6% | 83% | – | – | – | – | – | – | – |
| CCNC(=O)c1noc(-c2cc(C(C)C)c(O)cc2O)c1-c1ccc(CN2CCOCC2)cc1 [LUMINESPIB] | 88.9% | 82.5% | 94.1% | 92.7% | 470 | 31.1 µM | – | – | – | – | – |
| FC(F)(F)c1cccc(-c2nc(Cc3cc(-c4cccs4)no3)no2)c1 | 27.5% | 17.5% | 88.3% | 88.2% | – | – | – | – | – | – | – |
| CC(C)(C)NC(=O)[C@@H]1CN(Cc2cccnc2)CCN1C[C@@H](O)C[C@@H](Cc1ccccc1)C(=O)N[C@H]1c2ccccc2C[C@H]1O | – | – | – | – | – | – | 87% | – | – | – | – |
| FC(F)(F)c1cccc(-c2nc(Cc3cc(-c4ccc(Cl)cc4)no3)no2)c1 | 82% | 66.8% | 85.1% | 84.4% | 155 | 13.3 µM | – | 0.0857 µM | 5.44% | 6.66% | 9.58% |
